One may read the IC50 as the concentration needed to halve the response being measured.

Where a name gives a salt, the structure may show the parent alone. Read-outs that look alike come from different tables or passages of the source.

The target in experiment [1] is PI3Kδ (Homo sapiens, UniProt O00329). Description: PI3Kδ kinase assay (ADP-Glo-based biochemical assay). (ADP-Glo first removes unused ATP, then detects ADP through luciferase.)
Procedure: (§1) This study aims to determine the effect of test compounds on PI3Kα/β/δ enzyme activity using ADP-Glo-based biochemical assay (Vendor: Promega, Cat#: V9102), following the manufacturer’s instruction. […] Then, the IC50s were calculated by fitting % inhibition values and the log of compound concentrations to the hill slope with the variable slope (called the variable slope model or four-parameter dose-response curve), and the log (inhibitor) vs. response curve was built by GraphPad Prism version 7.0 (GraphPad Software). Data are presented as mean ± SEM, with n = 3 for each drug dose.
Experiment [2] concerns the target PI3Kα (Homo sapiens, UniProt P42336). The experiment can be described thus: PI3Kα kinase assay (ADP-Glo-based biochemical assay).
Procedure: as §1
Experiment [3] concerns the target PI3Kβ (Homo sapiens, UniProt P42338). The experiment can be described thus: PI3Kβ kinase assay (ADP-Glo-based biochemical assay). As to conditions: n = 3 per dose.
Procedure: as §1
Experiment [4] concerns N-methyl-D-aspartic acid (NMDA) receptor. As to conditions: uncompetitive, low-affinity, non-selective antagonist; ref Lipton, 2007; cited from earlier work.
[5] abbreviates: ADP-Glo, n = 3 per dose, read-out: IC50 PI3Kδ.
Setting [6] is: ADP-Glo, n = 3 per dose, read-out: IC50 PI3Kα.

Sequence of PI3Kδ (O00329 whole entry): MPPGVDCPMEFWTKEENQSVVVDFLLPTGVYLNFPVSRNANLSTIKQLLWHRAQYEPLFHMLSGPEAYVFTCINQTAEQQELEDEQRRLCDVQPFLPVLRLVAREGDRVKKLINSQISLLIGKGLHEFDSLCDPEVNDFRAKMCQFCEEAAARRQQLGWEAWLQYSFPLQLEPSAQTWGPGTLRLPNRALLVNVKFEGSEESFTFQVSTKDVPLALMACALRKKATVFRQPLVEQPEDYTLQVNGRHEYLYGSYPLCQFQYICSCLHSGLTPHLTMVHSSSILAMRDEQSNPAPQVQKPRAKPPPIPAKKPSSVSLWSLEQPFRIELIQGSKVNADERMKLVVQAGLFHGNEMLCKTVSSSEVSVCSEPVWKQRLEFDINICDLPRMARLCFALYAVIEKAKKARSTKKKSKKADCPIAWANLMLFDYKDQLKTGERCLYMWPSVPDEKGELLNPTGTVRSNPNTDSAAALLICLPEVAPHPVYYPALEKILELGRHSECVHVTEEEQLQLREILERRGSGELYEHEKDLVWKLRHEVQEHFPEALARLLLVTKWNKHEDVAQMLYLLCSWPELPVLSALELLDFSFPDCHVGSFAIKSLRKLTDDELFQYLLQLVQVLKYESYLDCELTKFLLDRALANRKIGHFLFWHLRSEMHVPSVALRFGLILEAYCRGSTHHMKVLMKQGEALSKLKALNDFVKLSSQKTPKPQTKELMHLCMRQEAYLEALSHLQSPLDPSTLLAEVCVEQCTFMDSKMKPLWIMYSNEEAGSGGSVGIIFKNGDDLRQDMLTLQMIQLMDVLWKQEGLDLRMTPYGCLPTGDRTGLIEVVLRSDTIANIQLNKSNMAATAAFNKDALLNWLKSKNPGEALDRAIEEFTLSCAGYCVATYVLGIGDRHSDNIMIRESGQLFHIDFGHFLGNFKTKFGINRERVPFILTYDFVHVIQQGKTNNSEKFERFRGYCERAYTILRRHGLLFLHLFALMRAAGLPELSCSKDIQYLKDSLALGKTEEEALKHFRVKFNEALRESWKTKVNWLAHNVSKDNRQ
Sequence of PI3Kδ (P27986 whole entry partner): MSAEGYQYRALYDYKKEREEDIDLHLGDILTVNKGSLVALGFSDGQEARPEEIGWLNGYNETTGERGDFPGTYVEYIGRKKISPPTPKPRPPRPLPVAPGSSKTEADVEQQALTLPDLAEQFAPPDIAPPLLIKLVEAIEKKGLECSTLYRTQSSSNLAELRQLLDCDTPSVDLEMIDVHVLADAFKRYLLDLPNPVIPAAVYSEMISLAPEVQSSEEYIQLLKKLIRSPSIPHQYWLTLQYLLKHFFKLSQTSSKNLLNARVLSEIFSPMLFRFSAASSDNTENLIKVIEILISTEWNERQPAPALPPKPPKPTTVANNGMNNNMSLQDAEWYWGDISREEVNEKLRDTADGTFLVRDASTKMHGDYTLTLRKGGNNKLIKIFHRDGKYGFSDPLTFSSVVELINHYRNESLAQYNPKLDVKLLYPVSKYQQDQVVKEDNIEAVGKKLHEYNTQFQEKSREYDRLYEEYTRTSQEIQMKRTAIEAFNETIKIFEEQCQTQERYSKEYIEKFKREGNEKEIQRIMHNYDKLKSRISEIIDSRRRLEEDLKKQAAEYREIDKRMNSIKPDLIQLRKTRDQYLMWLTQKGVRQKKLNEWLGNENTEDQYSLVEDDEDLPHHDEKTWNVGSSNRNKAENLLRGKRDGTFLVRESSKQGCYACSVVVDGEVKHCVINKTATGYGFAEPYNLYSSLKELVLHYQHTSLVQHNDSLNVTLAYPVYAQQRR
Sequence of PI3Kα (P42336 whole entry): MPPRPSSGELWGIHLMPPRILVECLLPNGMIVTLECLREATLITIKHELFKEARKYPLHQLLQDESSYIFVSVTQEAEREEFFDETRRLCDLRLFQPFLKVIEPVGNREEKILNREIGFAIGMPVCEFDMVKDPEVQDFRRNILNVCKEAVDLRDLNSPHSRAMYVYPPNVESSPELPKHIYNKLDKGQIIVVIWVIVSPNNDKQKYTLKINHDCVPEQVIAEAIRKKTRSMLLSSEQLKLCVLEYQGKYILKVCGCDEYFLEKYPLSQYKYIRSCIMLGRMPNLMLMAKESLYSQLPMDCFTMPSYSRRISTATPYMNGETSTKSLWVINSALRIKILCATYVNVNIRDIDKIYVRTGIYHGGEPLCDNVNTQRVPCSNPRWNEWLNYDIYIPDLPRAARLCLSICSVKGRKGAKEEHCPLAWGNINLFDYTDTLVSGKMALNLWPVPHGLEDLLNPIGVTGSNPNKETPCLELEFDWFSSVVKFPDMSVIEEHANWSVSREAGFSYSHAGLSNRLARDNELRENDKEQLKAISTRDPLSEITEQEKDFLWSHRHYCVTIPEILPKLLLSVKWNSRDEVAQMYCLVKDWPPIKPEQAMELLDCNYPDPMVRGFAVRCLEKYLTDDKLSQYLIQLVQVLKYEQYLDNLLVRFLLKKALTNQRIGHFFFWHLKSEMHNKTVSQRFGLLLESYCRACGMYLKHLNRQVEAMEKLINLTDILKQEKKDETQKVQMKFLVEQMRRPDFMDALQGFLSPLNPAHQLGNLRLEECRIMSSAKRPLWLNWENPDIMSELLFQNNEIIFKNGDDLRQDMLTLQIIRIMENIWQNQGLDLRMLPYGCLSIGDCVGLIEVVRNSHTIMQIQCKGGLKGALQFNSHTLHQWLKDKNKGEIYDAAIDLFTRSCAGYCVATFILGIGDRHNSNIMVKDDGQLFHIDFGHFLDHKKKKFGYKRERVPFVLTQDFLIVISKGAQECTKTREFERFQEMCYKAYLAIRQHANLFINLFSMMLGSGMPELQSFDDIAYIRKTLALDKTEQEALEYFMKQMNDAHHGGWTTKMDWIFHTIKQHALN
Sequence of PI3Kα (P27986 whole entry partner): as the sequence (P27986 whole entry partner) above
Sequence of PI3Kβ (P42338 whole entry): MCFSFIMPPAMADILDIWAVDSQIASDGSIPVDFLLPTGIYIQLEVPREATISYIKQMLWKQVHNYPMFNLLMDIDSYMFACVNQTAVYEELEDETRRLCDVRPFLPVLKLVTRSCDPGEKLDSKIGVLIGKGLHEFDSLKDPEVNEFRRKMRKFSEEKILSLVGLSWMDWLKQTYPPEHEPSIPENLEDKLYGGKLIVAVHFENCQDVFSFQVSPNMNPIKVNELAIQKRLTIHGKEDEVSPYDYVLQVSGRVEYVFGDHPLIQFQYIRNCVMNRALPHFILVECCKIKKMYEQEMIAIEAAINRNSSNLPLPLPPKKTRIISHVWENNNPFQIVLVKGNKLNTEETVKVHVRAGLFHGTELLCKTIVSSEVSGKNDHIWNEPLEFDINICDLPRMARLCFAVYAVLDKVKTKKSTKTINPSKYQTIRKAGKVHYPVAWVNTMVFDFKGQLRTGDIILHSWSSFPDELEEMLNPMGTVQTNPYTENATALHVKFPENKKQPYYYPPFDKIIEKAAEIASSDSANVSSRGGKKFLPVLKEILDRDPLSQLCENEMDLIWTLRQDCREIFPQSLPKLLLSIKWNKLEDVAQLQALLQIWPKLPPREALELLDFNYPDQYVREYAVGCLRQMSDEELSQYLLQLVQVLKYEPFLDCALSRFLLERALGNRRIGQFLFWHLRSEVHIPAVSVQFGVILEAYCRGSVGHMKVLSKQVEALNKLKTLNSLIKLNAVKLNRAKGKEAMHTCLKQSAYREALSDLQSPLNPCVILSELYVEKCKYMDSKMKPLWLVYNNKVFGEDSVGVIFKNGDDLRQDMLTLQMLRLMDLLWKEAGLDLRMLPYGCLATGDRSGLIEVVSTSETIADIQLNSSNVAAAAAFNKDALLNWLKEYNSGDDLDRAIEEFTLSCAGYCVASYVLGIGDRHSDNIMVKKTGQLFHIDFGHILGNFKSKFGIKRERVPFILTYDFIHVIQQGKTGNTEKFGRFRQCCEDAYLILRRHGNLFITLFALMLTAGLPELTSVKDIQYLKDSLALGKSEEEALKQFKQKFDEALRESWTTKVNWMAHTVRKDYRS
Sequence of PI3Kβ (P27986 whole entry partner): as the sequence (P27986 whole entry partner) above

With `CC(C)NCCCn1c(Sc2cc3c(cc2I)OCO3)nc2c(N)ncnc21` [PU-H71], the IC50 in experiment [1] (setting [5]) was found to be 20 µM.

`CO[C@H]1/C=C\C=C(/C)C(=O)NC2=CC(=O)C(NCCN(C)C)=C(C[C@@H](C)C[C@H](OC)[C@H](O)[C@@H](C)/C=C(\C)[C@@H]1OC(N)=O)C2=O` [alvespimycin]: the values for the IC50 in experiment [2] (setting [6]), in experiment [3] and in experiment [1] (setting [5]) were 93 µM, 69 µM and 28 µM, respectively.

On to `O=C(c1ccc(OCCN2CCCCC2)cc1)c1c(-c2ccc(O)cc2)sc2cc(O)ccc12` [Raloxifene HCl, raloxifene HCl], for which the values for the IC50 in experiment [2] (setting [6]), in experiment [3] and in experiment [1] (setting [5]) were 16 µM, 8.4 µM and 4.3 µM, respectively.

With `CC12CC3CC(C)(C1)CC(N)(C3)C2` [memantine], the “affinity for NMDA receptor” value in experiment [4] is on record as “micromolar range”.

Consider `CC/C(=C(\c1ccccc1)c1ccc(OCCN(C)C)cc1)c1ccccc1` [Tamoxifen, tamoxifen], for which the IC50 in experiment [2] (setting [6]) worked out at 19 µM; in experiment [3], 14 µM; in experiment [1] (setting [5]), 10 µM.

On to `c1nc2nc(Nc3ccc(N4CCOCC4)cc3)nc(NC3CCCCC3)c2[nH]1` [reversine], for which the IC50 in experiment [2] was determined as 12 µM; in experiment [1], 3.5 µM.

In the case of `COc1ccc(CCN2CCC(Nc3nc4ccccc4n3Cc3ccc(F)cc3)CC2)cc1` [astemizole], the IC50 in experiment [2] (setting [6]) was 18 µM; in experiment [3] it was 8.7 µM; in experiment [1] (setting [5]) it was 6 µM.
